Assay results from ChEMBL document CHEMBL4145542, “Recent progress in potential anti-hepatitis B virus agents: Structural and pharmacological perspectives” (Eur J Med Chem, 2018).

What was measured:
[1] = system: Hepatitis B virus; test: Antiviral activity against HBV infected in human HepDES19 cells assessed as reduction in viral cccDNA level; assay type: functional, organism-based
[2] = system: Hepatitis B virus; test: Antiviral activity against HBV infected in human HepG2.2.15 cells assessed as reduction in viral DNA level after 8 days by dot-blot hybridization assay; assay type: functional, organism-based; conditions: HepG2.2.15, 192 h

EC50 [1] [µM] | IC50 [2] [µM] | Compound
10 | – | O=C(CN(c1cc(C(F)(F)F)ccc1Cl)S(=O)(=O)c1ccccc1)NCc1ccncc1
– | 0.053 | COC(=O)C1=C(C)NC(c2ncc(F)cc2F)=N[C@H]1c1ccc(F)cc1Cl
3 | – | Cc1nc2cc(NC(=O)c3ccc(S(=O)(=O)N(C)Cc4ccccc4)cc3)ccc2s1
